Experimental data taken from US10485235B2, “Aryloxypyrimidinyl ethers as herbicides” (FMC Corporation, priority 2015, dated 2019).

Tests used:
Type in all cases: in vivo
[1] = tested on: barnyardgrass (Echinochloa crus-galli); assay: Test A postemergence, barnyardgrass; settings: postemergence, 0 to 100 scale, 0 is no effect, 100 is complete control, approximately 10 days
Summary of the method: (§1)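 Approximately 10-day greenhouse assay. Formulated chemical (non-phytotoxic solvent plus surfactant) applied preemergence to soil over seeds or postemergence to plants of 2 to 10 cm. Endpoint: visual percent control, 0–100.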

[2] = tested on: pigweed (Amaranthus retroflexus); assay: Test A postemergence, pigweed; settings: postemergence, 0 to 100 scale, 0 is no effect, 100 is complete control, approximately 10 days
Summary of the method: as §1

[3] = tested on: ducksalad (Heteranthera limosa); assay: Test B flooded paddy test, ducksalad; settings: 250 g ai/ha, Flood; visual rating after 13 to 15 days; scale 0 to 100, 0 is no effect, 100 is complete control
Procedure: (§2) Plant species in the flooded paddy test selected from rice (Oryza sativa), sedge, umbrella (small-flower umbrella sedge, Cyperus difformis), ducksalad (Heteranthera limosa), and barnyardgrass (Echinochloa crus-galli) were grown to the 2-leaf stage for testing. At time of treatment, test pots were flooded to 3 cm above the soil surface, treated by application of test compounds directly to the paddy water, and then maintained at that water depth for the duration of the test. Treated plants and controls were maintained in a greenhouse for 13 to 15 days, after which time all species were compared to controls and visually evaluated. Plant response ratings, summarized in Table B, are based on a scale of 0 to 100 where 0 is no effect and 100 is complete control. A dash (—) response means no test result.

[4] = tested on: wheat (Triticum aestivum); assay: Test A postemergence, wheat; settings: postemergence, 0 to 100 scale, 0 is no effect, 100 is complete control, approximately 10 days
Summary of the method: as §1

[5] = tested on: pigweed (Amaranthus retroflexus); assay: Test A preemergence, pigweed; settings: Preemergence, 0 to 100 scale (0 no effect, 100 complete control)
Summary of the method: as §1

[6] = tested on: galium (catchweed bedstraw, Galium aparine); assay: Test A postemergence, galium; settings: postemergence, 0 to 100 scale, 0 is no effect, 100 is complete control, approximately 10 days
Summary of the method: as §1

[7] = tested on: ragweed (common ragweed, Ambrosia elatior); assay: Test A postemergence, ragweed; settings: postemergence, 0 to 100 scale, 0 is no effect, 100 is complete control, approximately 10 days
Summary of the method: as §1

kochia (Kochia scoparia) [8] = assay: Test A postemergence, kochia; settings: postemergence, 0 to 100 scale, 0 is no effect, 100 is complete control, approximately 10 days
Summary of the method: as §1

[9] = tested on: ragweed (common ragweed, Ambrosia elatior); assay: Test A preemergence, ragweed; settings: Preemergence, 0 to 100 scale (0 no effect, 100 complete control)
Summary of the method: as §1

[10] = tested on: foxtail, giant (giant foxtail, Setaria faberii); assay: Test A preemergence, giant foxtail; settings: Preemergence, 0 to 100 scale (0 no effect, 100 complete control)
Summary of the method: as §1

[11] = tested on: blackgrass (Alopecurus myosuroides); assay: Test A postemergence, blackgrass; settings: postemergence, 0 to 100 scale, 0 is no effect, 100 is complete control, approximately 10 days
Summary of the method: as §1

[12] = tested on: ryegrass, Italian (Italian ryegrass, Lolium multiflorum); assay: Test A postemergence, Italian ryegrass; settings: postemergence, 0 to 100 scale, 0 is no effect, 100 is complete control, approximately 10 days
Summary of the method: as §1

[13] = tested on: sedge, umbrella (small-flower umbrella sedge, Cyperus difformis); assay: Test B flooded paddy test, umbrella sedge; settings: 250 g ai/ha, Flood; visual rating after 13 to 15 days; scale 0 to 100, 0 is no effect, 100 is complete control
Procedure: as §2

[14] = tested on: barnyardgrass (Echinochloa crus-galli); assay: Test B flooded paddy test, barnyardgrass; settings: 250 g ai/ha, Flood; visual rating after 13 to 15 days; scale 0 to 100, 0 is no effect, 100 is complete control
Procedure: as §2

corn (Zea mays) = assay: Test A postemergence, corn; settings: postemergence, 0 to 100 scale, 0 is no effect, 100 is complete control, approximately 10 days
Summary of the method: as §1

[15] = tested on: ryegrass, Italian (Italian ryegrass, Lolium multiflorum); assay: Test A preemergence, Italian ryegrass; settings: Preemergence, 0 to 100 scale (0 no effect, 100 complete control)
Summary of the method: as §1

rice (Oryza sativa) = assay: Test B flooded paddy test, rice; settings: 250 g ai/ha, Flood; visual rating after 13 to 15 days; scale 0 to 100, 0 is no effect, 100 is complete control
Procedure: as §2

[16] = tested on: barnyardgrass (Echinochloa crus-galli); assay: Test A preemergence, barnyardgrass; settings: Preemergence, 0 to 100 scale (0 no effect, 100 complete control)
Summary of the method: as §1

[17] = tested on: foxtail, giant (giant foxtail, Setaria faberii); assay: Test A postemergence, giant foxtail; settings: postemergence, 0 to 100 scale, 0 is no effect, 100 is complete control, approximately 10 days
Summary of the method: as §1

kochia (Kochia scoparia) [18] = assay: Test A preemergence, kochia; settings: Preemergence, 0 to 100 scale (0 no effect, 100 complete control)
Summary of the method: as §1

SMILES	Plant response rating, Barnyardgrass ([1]; 125 g ai/ha)	Plant response rating, Pigweed ([2]; 125 g ai/ha)	Plant response rating, Ducksalad [3]	Plant response rating, Wheat ([4]; 125 g ai/ha)	Plant response rating, Pigweed ([5]; 125 g ai/ha)	Plant response rating, Galium ([6]; 125 g ai/ha)	Plant response rating, Ragweed ([7]; 125 g ai/ha)	Plant response rating, Kochia (kochia (Kochia scoparia) [8]; 125 g ai/ha)	Plant response rating, Ragweed ([9]; 125 g ai/ha)	Plant response rating, Foxtail, Giant ([10]; 125 g ai/ha)	Plant response rating, Blackgrass ([11]; 125 g ai/ha)	Plant response rating, Ryegrass, Italian ([12]; 125 g ai/ha)	Plant response rating, Sedge, Umbrella [13]	Plant response rating, Barnyardgrass [14]	Plant response rating, Corn (corn (Zea mays); 125 g ai/ha)	Plant response rating, Ryegrass, Italian ([15]; 125 g ai/ha)	Plant response rating, Rice (rice (Oryza sativa))	Plant response rating, Barnyardgrass ([16]; 125 g ai/ha)	Plant response rating, Foxtail, Giant ([17]; 125 g ai/ha)	Plant response rating, Kochia (kochia (Kochia scoparia) [18]; 125 g ai/ha)	further results
Fc1cccc(Oc2ncc(Cl)cn2)c1OC/C=C/Cl [Compound 9]	20	60	80	0	80	60	0	70	0	100	10	0	80	0	10	0	0	40	20	40	Plant response rating, Barnyardgrass ([1]; 500 g ai/ha): 80; Plant response rating, Pigweed ([2]; 500 g ai/ha): 100; Plant response rating, Wheat ([4]; 500 g ai/ha): 10; Plant response rating, Pigweed ([5]; 500 g ai/ha): 100; Plant response rating, Galium ([6]; 500 g ai/ha): 90; Plant response rating, Ragweed ([7]; 500 g ai/ha): 0; Plant response rating, Kochia (kochia (Kochia scoparia) [8]; 500 g ai/ha): 100; Plant response rating, Ragweed ([9]; 500 g ai/ha): 0; Plant response rating, Foxtail, Giant ([10]; 500 g ai/ha): 100; Plant response rating, Blackgrass ([11]; 500 g ai/ha): 70; Plant response rating, Ryegrass, Italian ([12]; 500 g ai/ha): 10; Plant response rating, Corn (corn (Zea mays); 500 g ai/ha): 30; Plant response rating, Ryegrass, Italian ([15]; 500 g ai/ha): 20; Plant response rating, Barnyardgrass ([16]; 500 g ai/ha): 100; Plant response rating, Foxtail, Giant ([17]; 500 g ai/ha): 80; Plant response rating, Kochia (kochia (Kochia scoparia) [18]; 500 g ai/ha): 100
O=C(CCC(F)(F)F)COc1c(Br)cccc1Oc1ncc(Cl)cn1 [Compound 56]	20	100	85	20	80	40	0	60	0	90	20	10	75	0	30	0	30	90	30	50	Plant response rating, Barnyardgrass ([1]; 31 g ai/ha): 0; Plant response rating, Pigweed ([2]; 31 g ai/ha): 40; Plant response rating, Wheat ([4]; 31 g ai/ha): 0; Plant response rating, Pigweed ([5]; 31 g ai/ha): 0; Plant response rating, Galium ([6]; 31 g ai/ha): 10; Plant response rating, Ragweed ([7]; 31 g ai/ha): 0; Plant response rating, Kochia (kochia (Kochia scoparia) [8]; 31 g ai/ha): 0; Plant response rating, Ragweed ([9]; 31 g ai/ha): 0; Plant response rating, Foxtail, Giant ([10]; 31 g ai/ha): 0; Plant response rating, Blackgrass ([11]; 31 g ai/ha): 0; Plant response rating, Ryegrass, Italian ([12]; 31 g ai/ha): 0; Plant response rating, Corn (corn (Zea mays); 31 g ai/ha): 10; Plant response rating, Ryegrass, Italian ([15]; 31 g ai/ha): 0; Plant response rating, Barnyardgrass ([16]; 31 g ai/ha): 0; Plant response rating, Foxtail, Giant ([17]; 31 g ai/ha): 0; Plant response rating, Kochia (kochia (Kochia scoparia) [18]; 31 g ai/ha): 0
FCCCOc1c(I)cccc1Oc1ncc(Cl)cn1 [Compound 66]	50	100	100	0	100	90	0	100	0	100	30	20	100	0	30	10	20	70	30	60	Plant response rating, Barnyardgrass ([1]; 31 g ai/ha): 0; Plant response rating, Pigweed ([2]; 31 g ai/ha): 90; Plant response rating, Wheat ([4]; 31 g ai/ha): 0; Plant response rating, Pigweed ([5]; 31 g ai/ha): 70; Plant response rating, Galium ([6]; 31 g ai/ha): 40; Plant response rating, Ragweed ([7]; 31 g ai/ha): 0; Plant response rating, Kochia (kochia (Kochia scoparia) [8]; 31 g ai/ha): 90; Plant response rating, Ragweed ([9]; 31 g ai/ha): 0; Plant response rating, Foxtail, Giant ([10]; 31 g ai/ha): 50; Plant response rating, Blackgrass ([11]; 31 g ai/ha): 10; Plant response rating, Ryegrass, Italian ([12]; 31 g ai/ha): 0; Plant response rating, Corn (corn (Zea mays); 31 g ai/ha): 0; Plant response rating, Ryegrass, Italian ([15]; 31 g ai/ha): 0; Plant response rating, Barnyardgrass ([16]; 31 g ai/ha): 20; Plant response rating, Foxtail, Giant ([17]; 31 g ai/ha): 10; Plant response rating, Kochia (kochia (Kochia scoparia) [18]; 31 g ai/ha): 0
CCCCCOc1c(C#N)cccc1Oc1ncc(Cl)cn1 [Compound 51]	30	40	80	0	50	70	10	70	0	100	20	10	95	0	20	0	0	40	40	40	Plant response rating, Barnyardgrass ([1]; 31 g ai/ha): 10; Plant response rating, Pigweed ([2]; 31 g ai/ha): 10; Plant response rating, Wheat ([4]; 31 g ai/ha): 0; Plant response rating, Pigweed ([5]; 31 g ai/ha): 10; Plant response rating, Galium ([6]; 31 g ai/ha): 40; Plant response rating, Ragweed ([7]; 31 g ai/ha): 0; Plant response rating, Kochia (kochia (Kochia scoparia) [8]; 31 g ai/ha): 40; Plant response rating, Ragweed ([9]; 31 g ai/ha): 0; Plant response rating, Foxtail, Giant ([10]; 31 g ai/ha): 40; Plant response rating, Blackgrass ([11]; 31 g ai/ha): 0; Plant response rating, Ryegrass, Italian ([12]; 31 g ai/ha): 0; Plant response rating, Corn (corn (Zea mays); 31 g ai/ha): 10; Plant response rating, Ryegrass, Italian ([15]; 31 g ai/ha): 0; Plant response rating, Barnyardgrass ([16]; 31 g ai/ha): 10; Plant response rating, Foxtail, Giant ([17]; 31 g ai/ha): 10; Plant response rating, Kochia (kochia (Kochia scoparia) [18]; 31 g ai/ha): 0
